# According to ChEMBL document CHEMBL2169795, “Macrocyclic peptoid-Peptide hybrids as inhibitors of class I histone deacetylases” (ACS Med Chem Lett, 2012):
# pIC50: −log10 of the molar value. Active and inactive are the calls of the source. The calls are words filed in the database; no cut-off is given here.
# What was measured:
# Histone deacetylase = assay: Inhibition of HDAC in human HeLa cell extracts by fluorimetric assay; assay type: protein assay
# [1] = Cytotoxicity against human KYO1 cells after 72 hrs by XTT assay; assay type: functional; conditions: KYO1, 72 h
# MCF7 = assay: Cytotoxicity against human MCF7 cells after 72 hrs by XTT assay; assay type: functional; conditions: MCF7, 72 h
# HeLa = assay: Cytotoxicity against human HeLa cells after 72 hrs by XTT assay; assay type: functional
# K562 = assay: Cytotoxicity against human K562 cells after 72 hrs by XTT assay; assay type: functional; conditions: K562, 72 h
# HCT-116 = assay: Cytotoxicity against human HCT116 cells after 72 hrs by XTT assay; assay type: functional; conditions: HCT-116, 72 h
# Histone deacetylase 1 = Histone deacetylase 1 (Homo sapiens, UniProt Q13547); assay: Inhibition of human recombinant HDAC1 using Ac-Lys(Ac)-7-amino-4-methylcoumarin as substrate after 30 mins by trypsin-coupled fluorogenic assay
# [2] = biological target: Histone deacetylase 3/Nuclear receptor corepressor 2 (HDAC3/NCoR2) (Homo sapiens, UniProt O15379); assay: Inhibition of human recombinant HDAC3/NCoR2 using Ac-Lys(Ac)-7-amino-4-methylcoumarin as substrate after 30 mins by trypsin-coupled fluorogenic assay; assay type: protein-complex assay
# [3] = biological target: T1, Protein deacetylase HDAC6 (Homo sapiens, UniProt Q9UBN7); assay: Inhibition of human recombinant HDAC6 using Ac-Lys(Ac)-7-amino-4-methylcoumarin as substrate after 30 mins by trypsin-coupled fluorogenic assay
# T1 sequence (Q9UBN7 whole entry): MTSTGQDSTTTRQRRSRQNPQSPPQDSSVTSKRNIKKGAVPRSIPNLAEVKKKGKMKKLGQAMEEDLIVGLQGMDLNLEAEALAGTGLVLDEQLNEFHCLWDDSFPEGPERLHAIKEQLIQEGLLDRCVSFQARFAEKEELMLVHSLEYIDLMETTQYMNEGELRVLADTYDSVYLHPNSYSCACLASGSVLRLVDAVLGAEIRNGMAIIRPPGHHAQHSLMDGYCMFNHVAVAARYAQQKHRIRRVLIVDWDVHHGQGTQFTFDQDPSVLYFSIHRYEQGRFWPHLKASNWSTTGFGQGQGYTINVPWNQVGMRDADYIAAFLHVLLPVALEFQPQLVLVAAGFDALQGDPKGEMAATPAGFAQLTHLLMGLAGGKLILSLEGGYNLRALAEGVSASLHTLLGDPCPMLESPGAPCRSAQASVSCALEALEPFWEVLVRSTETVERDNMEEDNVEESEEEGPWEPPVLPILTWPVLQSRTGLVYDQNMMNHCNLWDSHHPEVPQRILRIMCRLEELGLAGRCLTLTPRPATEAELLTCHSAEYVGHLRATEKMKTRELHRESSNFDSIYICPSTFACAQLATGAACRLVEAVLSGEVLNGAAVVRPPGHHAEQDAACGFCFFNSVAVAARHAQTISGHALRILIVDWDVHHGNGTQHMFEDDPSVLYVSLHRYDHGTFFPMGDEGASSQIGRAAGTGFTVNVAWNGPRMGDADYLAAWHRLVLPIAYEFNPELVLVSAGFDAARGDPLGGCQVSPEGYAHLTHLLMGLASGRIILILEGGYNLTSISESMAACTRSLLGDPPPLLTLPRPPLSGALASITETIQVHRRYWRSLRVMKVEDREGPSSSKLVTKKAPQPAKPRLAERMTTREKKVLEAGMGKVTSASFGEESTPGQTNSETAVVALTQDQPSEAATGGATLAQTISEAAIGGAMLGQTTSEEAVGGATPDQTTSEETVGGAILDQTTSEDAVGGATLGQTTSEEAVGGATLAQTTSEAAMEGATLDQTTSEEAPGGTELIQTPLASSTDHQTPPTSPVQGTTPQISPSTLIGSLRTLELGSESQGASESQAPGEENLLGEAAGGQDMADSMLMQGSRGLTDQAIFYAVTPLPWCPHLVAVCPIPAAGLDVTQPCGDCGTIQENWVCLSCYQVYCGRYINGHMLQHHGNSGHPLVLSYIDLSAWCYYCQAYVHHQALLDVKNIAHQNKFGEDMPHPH
# Histone deacetylase 2 = Histone deacetylase 2 (Homo sapiens, UniProt Q92769); assay: Inhibition of human recombinant HDAC2 using Ac-Lys(Ac)-7-amino-4-methylcoumarin as substrate after 30 mins by trypsin-coupled fluorogenic assay
# Histone deacetylase 8 = biological target: T2, Histone deacetylase 8 (Homo sapiens, UniProt Q9BY41); assay: Inhibition of human recombinant HDAC8 using Arg-His-Lys(Ac)-Lys(Ac)-AMC as substrate after 30 mins by trypsin-coupled fluorogenic assay
# T2 sequence (Q9BY41 whole entry): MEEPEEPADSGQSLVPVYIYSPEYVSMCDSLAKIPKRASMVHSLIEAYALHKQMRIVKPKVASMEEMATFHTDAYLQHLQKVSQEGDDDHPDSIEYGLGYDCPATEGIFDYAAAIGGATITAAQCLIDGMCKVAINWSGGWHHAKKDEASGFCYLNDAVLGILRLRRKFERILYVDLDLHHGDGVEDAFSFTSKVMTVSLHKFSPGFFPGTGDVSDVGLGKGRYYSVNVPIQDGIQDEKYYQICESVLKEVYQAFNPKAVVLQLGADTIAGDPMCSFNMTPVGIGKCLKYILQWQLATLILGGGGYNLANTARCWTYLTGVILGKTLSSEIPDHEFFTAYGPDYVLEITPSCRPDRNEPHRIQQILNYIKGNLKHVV
# [4] = biological target: T3, Protein deacetylase HDAC6 (Homo sapiens) (UniProt Q9UBN7); conditions: Jurkat, 2 to 20 uM
# T3 sequence (whole entry): T1 sequence (Q9UBN7 whole entry)
# Description: Inhibition of HDAC6 in human Jurkat cells assessed as increase of acetylated alpha-tubulin level at 2 to 20 uM after 24 hrs by Western blot analysis
# [5] = biological target: Histone deacetylase (Homo sapiens) (UniProt Q13547+O15379+Q9UBN7+Q92769+Q9UQL6+Q8WUI4+Q9BY41+Q96DB2+P56524+Q9UKV0+Q969S8); conditions: Jurkat, 2 to 20 uM
# Description: Inhibition of HDAC in human Jurkat cells assessed as increase of acetylated-histone H3 level at 2 to 20 uM after 24 hrs by Western blot analysis
# Chain of Histone deacetylase 1 (Q13547 whole entry): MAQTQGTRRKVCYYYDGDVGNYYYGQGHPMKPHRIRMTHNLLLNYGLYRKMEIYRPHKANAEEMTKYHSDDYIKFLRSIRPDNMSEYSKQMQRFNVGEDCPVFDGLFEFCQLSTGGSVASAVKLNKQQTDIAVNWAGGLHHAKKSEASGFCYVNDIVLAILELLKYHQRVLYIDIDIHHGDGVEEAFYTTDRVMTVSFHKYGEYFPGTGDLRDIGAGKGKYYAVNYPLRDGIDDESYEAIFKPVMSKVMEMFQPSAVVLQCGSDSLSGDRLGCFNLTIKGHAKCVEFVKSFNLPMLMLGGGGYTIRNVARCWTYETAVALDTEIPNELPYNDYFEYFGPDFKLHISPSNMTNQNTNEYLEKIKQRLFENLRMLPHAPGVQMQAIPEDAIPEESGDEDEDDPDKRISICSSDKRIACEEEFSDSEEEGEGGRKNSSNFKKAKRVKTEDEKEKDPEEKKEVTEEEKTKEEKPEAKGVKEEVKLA
# Chain of Histone deacetylase 2 (Q92769 whole entry): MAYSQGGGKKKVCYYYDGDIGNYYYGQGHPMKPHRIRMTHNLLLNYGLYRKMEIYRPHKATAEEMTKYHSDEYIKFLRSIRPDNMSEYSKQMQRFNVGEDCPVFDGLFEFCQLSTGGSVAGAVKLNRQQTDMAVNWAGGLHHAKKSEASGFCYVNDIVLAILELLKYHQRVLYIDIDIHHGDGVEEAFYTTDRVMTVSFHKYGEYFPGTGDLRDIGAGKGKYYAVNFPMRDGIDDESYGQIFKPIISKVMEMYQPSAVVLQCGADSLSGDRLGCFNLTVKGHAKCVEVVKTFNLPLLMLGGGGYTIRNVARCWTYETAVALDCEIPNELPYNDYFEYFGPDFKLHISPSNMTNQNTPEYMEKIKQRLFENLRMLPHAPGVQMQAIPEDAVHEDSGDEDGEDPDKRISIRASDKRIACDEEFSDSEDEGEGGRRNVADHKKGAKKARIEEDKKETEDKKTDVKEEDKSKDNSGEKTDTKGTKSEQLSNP
# Chain of Histone deacetylase 3/Nuclear receptor corepressor 2 (HDAC3/NCoR2) (O15379 whole entry): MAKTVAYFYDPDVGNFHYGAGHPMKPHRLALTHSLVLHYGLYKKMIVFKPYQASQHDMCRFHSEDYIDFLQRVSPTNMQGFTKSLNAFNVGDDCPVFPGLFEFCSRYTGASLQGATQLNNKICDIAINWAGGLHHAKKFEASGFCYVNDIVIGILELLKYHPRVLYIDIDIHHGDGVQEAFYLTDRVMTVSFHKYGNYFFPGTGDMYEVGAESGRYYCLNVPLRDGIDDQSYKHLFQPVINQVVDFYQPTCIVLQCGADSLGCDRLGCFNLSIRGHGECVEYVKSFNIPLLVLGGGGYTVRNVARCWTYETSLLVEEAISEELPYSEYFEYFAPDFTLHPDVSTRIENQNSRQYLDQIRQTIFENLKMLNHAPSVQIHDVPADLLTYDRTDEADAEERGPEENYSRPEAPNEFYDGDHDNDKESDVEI
# Chain of Histone deacetylase 3/Nuclear receptor corepressor 2 (HDAC3/NCoR2) (Q9Y618 whole entry, further chain): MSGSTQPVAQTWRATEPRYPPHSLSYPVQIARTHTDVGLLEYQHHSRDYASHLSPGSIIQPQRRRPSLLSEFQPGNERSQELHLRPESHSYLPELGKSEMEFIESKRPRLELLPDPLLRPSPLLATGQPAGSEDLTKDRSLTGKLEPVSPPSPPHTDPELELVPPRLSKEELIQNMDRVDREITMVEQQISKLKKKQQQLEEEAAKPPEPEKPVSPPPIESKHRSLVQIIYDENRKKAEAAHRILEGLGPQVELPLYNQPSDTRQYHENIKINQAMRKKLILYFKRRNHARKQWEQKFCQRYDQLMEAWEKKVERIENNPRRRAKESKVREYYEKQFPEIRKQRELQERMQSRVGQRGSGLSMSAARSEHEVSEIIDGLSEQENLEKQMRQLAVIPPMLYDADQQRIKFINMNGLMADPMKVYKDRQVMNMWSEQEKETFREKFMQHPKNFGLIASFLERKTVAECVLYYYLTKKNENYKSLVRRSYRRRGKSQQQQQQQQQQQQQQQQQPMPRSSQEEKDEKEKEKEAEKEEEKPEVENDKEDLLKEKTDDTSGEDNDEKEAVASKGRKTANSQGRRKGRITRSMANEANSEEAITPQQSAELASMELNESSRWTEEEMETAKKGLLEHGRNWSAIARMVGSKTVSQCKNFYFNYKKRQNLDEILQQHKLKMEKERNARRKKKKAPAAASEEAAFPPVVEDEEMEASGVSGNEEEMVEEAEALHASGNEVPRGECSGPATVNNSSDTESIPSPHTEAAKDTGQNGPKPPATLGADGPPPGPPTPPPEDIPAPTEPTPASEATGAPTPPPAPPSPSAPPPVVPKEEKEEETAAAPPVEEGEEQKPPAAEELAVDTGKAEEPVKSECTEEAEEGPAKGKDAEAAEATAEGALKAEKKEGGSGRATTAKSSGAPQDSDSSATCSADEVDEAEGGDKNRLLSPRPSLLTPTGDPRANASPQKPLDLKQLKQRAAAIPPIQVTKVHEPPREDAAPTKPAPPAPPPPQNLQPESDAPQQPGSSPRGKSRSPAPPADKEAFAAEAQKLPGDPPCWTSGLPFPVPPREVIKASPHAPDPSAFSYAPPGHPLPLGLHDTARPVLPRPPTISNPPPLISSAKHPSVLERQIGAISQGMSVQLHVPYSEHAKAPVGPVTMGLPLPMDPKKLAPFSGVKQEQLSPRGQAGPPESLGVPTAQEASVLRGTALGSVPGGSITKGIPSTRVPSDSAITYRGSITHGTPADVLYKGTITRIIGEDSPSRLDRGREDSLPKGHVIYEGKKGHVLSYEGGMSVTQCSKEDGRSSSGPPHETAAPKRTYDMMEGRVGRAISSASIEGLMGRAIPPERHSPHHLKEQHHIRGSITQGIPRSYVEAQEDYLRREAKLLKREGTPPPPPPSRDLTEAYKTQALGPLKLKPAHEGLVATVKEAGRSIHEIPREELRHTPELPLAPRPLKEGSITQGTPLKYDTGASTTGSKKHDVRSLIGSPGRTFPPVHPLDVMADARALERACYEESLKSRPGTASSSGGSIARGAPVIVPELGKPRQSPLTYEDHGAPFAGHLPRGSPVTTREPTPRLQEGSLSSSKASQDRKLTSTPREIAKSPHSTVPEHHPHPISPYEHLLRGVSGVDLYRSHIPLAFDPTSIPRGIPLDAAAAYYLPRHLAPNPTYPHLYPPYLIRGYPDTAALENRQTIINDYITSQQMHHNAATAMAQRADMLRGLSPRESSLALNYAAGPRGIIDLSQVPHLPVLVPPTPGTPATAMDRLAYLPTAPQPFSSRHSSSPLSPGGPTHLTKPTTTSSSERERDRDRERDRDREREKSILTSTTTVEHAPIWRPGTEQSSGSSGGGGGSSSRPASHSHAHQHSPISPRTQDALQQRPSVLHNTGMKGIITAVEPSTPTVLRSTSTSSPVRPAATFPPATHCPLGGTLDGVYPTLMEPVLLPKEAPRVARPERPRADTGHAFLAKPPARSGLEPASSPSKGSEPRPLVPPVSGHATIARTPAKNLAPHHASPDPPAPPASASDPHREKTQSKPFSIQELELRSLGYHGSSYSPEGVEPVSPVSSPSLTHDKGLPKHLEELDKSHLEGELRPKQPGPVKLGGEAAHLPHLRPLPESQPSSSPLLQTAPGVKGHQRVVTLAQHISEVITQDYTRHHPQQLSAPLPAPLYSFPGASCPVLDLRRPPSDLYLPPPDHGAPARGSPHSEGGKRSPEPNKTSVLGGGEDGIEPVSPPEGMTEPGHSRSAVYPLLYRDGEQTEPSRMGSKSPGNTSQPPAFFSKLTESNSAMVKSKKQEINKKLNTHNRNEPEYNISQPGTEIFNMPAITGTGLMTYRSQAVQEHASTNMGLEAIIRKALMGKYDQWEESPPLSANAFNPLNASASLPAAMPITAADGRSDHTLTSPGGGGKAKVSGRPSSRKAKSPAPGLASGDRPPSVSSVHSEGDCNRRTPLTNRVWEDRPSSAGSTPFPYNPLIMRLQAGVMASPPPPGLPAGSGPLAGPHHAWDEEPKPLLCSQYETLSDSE
IC50 (Histone deacetylase),pIC50 [3],pIC50 (Histone deacetylase 2),Structure (SMILES),GI50 [1],GI50 (MCF7),GI50 (HeLa),GI50 (K562),GI50 (HCT-116),also measured
> 10 µM,,,CCC(=O)CCCCC[C@@H]1NC(=O)[C@H](C)N(C)C(=O)C[C@H](CC(C)C)NC(=O)CN(CCc2c[nH]c3ccccc23)C1=O,,,,,,
0.25 µM,< 5.00,5.92,CCC(=O)CCCCC[C@@H]1NC(=O)[C@H](CCCNC(=N)N)NC(=O)CCN(CC=C(C)C)C(=O)CN(CCc2c[nH]c3ccccc23)C1=O,,> 50 µM,> 50 µM,,> 50 µM,pIC50 (Histone deacetylase 1): 6.15; pIC50 [2]: 6.57
1 µM,< 5.00,5.70,CCC(=O)CCCCC[C@@H]1NC(=O)[C@H](C)N(C)C(=O)CCN(CC(C)C)C(=O)CN(CCc2c[nH]c3ccccc23)C1=O,18 µM,> 50 µM,30 µM,15 µM,28 µM,pIC50 (Histone deacetylase 1): 6.27; pIC50 [2]: 6.19
0.06 µM,< 5.00,6.52,CCC(=O)CCCCC[C@@H]1NC(=O)[C@H](CCCNC(=N)N)NC(=O)CCN(CC(C)C)C(=O)CN(CCc2c[nH]c3ccccc23)C1=O,> 50 µM,> 50 µM,> 50 µM,> 50 µM,> 50 µM,pIC50 (Histone deacetylase 1): 6.74; pIC50 [2]: 7.00; inhibition [4]: inactive; pIC50 (Histone deacetylase 8): 6.12; inhibition [5]: Active
0.21 µM,< 5.00,6.43,CCC(=O)CCCCC[C@@H]1NC(=O)[C@H](CCCCNC(C)=O)NC(=O)CCN(CC(C)C)C(=O)CN(CCc2c[nH]c3ccccc23)C1=O,10 µM,> 50 µM,38 µM,1.5 µM,50 µM,pIC50 (Histone deacetylase 1): 6.70; pIC50 [2]: 6.49

# Continued, molecule first:
Structure (SMILES),IC50 (Histone deacetylase),pIC50 [3],pIC50 (Histone deacetylase 2),GI50 [1],GI50 (MCF7),GI50 (HeLa),GI50 (K562),GI50 (HCT-116),also measured
CCC(=O)CCCCC[C@@H]1NC(=O)[C@H](C)N(C)C(=O)CCN(CC(C)C)C(=O)CN(CCc2ccccc2)C1=O,> 100 µM,,,,,,,,
CCC(=O)CCCCC[C@@H]1NC(=O)[C@H](C)N(C)C(=O)CCN(CC(C)C)C(=O)[C@H](Cc2c[nH]c3ccccc23)NC1=O,> 10 µM,,,,,,,,
CCC(=O)CCCCC[C@@H]1NC(=O)[C@H]2CCCCN2C(=O)[C@H]([C@@H](C)CC)NC(=O)[C@H](Cc2cn(OC)c3ccccc23)NC1=O [APICIDIN],,,,2.7 µM,5 µM,2 µM,1.5 µM,1 µM,
CCC(=O)CCCCC[C@@H]1NC(=O)[C@H](C)N(C)C(=O)CCN(CC(C)C)C(=O)CN(CC2CCCCC2)C1=O,> 100 µM,,,,,,,,
CCC(=O)CCCCC[C@@H]1NC(=O)[C@H](C)N(C)C(=O)CCN(CC(C)C)C(=O)CN(Cc2cccc3ccccc23)C1=O,18 µM,,,,,,,,
CCC(=O)CCCCC[C@@H]1NC(=O)[C@H](C)N(C)C(=O)CCN(CC(C)C)C(=O)CN(Cc2ccccc2)C1=O,> 100 µM,,,,,,,,
CCC(=O)CCCCC[C@@H]1NC(=O)[C@H](C)N(C)C(=O)C[C@H](CC(C)C)NC(=O)[C@H](Cc2c[nH]c3ccccc23)NC1=O,,< 5.00,7.15,7.5 µM,18 µM,4 µM,7 µM,,pIC50 (Histone deacetylase 8): 5.66
CCC(=O)CCCCCN1CC(=O)N(Cc2cccc3ccccc23)CC(=O)N(CC(C)C)CCC(=O)N[C@@H](C)C1=O,> 10 µM,,,,,,,,
CCC(=O)CCCCC[C@@H]1NC(=O)[C@H](C)N(C)C(=O)CCN(CC(C)C)C(=O)CN(Cc2ccc(C)cc2)C1=O,> 100 µM,,,,,,,,
CCC(=O)CCCCCN1CC(=O)N(CCc2c[nH]c3ccccc23)CC(=O)N(CC(C)C)CCC(=O)N(C)[C@@H](C)C1=O,> 10 µM,,,,,,,,
